Measurements as given in ChEMBL document CHEMBL4725218, “Deep Learning Enhancing Kinome-Wide Polypharmacology Profiling: Model Construction and Experiment Validation” (J Med Chem, 2020).

Legend:
[1] = biological target: Vascular endothelial growth factor receptor 2 (Homo sapiens) (UniProt P35968); test: Inhibition of human VEGFR2 assessed as remaining enzyme activity at 1 uM
[2] = biological target: Platelet-derived growth factor receptor beta (Homo sapiens) (UniProt P09619); test: Inhibition of human PDGFRbeta assessed as remaining enzyme activity at 1 uM
[3] = biological target: Tyrosine-protein kinase ABL1 (Mus musculus) (UniProt P00520); test: Inhibition of mouse Abl assessed as remaining enzyme activity at 1 uM
[4] = biological target: Tyrosine-protein kinase Blk (Mus musculus) (UniProt P16277); test: Inhibition of mouse BLK assessed as remaining enzyme activity at 1 uM
Chain of Tyrosine-protein kinase Blk (Mus musculus) (P16277 whole entry, the tested form may be a part): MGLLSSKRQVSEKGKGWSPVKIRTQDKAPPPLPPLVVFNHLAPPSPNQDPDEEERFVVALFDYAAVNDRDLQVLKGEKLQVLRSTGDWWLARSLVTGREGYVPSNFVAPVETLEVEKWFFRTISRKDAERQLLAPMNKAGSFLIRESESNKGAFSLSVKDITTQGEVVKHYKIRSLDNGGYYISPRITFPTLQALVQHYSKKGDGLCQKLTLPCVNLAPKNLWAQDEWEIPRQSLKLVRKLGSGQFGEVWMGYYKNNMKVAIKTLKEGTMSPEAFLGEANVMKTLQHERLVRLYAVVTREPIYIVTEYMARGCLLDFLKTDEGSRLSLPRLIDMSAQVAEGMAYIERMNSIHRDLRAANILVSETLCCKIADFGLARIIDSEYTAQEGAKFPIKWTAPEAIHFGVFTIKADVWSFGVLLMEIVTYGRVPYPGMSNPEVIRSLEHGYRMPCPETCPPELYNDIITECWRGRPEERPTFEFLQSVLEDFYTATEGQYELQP

[5] = biological target: Epithelial discoidin domain-containing receptor 1 (Homo sapiens) (UniProt Q08345); test: Inhibition of human DDR1 assessed as remaining enzyme activity at 1 uM
[6] = biological target: Cyclin-dependent kinase-like 2 (Homo sapiens) (UniProt Q92772); test: Inhibition of human CDKL2 assessed as remaining enzyme activity at 1 uM
[7] = biological target: Vascular endothelial growth factor receptor 1 (Homo sapiens) (UniProt P17948); test: Inhibition of human VEGFR1 assessed as remaining enzyme activity at 0.1 uM
Chain of Vascular endothelial growth factor receptor 1 (Homo sapiens) (P17948 whole entry): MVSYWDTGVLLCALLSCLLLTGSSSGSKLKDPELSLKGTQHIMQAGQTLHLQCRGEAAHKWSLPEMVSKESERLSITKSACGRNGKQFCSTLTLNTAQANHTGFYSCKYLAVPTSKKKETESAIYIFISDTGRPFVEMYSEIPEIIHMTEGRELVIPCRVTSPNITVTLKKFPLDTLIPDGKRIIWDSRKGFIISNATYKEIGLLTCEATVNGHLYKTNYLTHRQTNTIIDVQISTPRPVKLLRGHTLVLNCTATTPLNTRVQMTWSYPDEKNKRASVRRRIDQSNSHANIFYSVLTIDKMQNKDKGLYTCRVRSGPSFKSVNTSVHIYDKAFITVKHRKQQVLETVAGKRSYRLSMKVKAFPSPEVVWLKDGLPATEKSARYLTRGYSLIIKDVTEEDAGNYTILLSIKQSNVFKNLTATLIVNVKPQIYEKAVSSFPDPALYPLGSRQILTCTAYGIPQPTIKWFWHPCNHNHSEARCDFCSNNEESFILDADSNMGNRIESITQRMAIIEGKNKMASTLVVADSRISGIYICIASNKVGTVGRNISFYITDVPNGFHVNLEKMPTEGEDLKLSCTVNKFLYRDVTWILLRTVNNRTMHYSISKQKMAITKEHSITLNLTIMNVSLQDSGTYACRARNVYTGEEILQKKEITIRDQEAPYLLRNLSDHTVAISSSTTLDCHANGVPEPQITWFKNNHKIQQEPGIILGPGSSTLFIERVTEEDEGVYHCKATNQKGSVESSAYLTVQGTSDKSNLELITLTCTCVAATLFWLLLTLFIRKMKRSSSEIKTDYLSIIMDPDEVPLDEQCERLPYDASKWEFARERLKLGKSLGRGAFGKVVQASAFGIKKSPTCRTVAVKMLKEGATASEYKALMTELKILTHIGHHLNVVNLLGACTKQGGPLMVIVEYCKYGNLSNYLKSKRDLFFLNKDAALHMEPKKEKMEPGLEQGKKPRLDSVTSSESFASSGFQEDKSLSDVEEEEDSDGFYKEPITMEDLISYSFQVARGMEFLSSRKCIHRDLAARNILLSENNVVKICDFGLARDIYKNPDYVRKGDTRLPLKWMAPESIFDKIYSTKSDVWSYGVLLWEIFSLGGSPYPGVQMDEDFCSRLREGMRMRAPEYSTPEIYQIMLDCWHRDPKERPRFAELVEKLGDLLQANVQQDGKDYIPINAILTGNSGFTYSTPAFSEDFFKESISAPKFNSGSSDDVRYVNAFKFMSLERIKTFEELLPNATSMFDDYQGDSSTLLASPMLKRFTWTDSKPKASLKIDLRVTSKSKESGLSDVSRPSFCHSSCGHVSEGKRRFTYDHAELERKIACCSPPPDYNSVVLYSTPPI

[8] = biological target: Vascular endothelial growth factor receptor 2 (Homo sapiens) (UniProt P35968); test: Inhibition of human VEGFR2 assessed as remaining enzyme activity at 0.1 uM
[9] = biological target: Tyrosine-protein kinase Blk (Mus musculus) (UniProt P16277); test: Inhibition of mouse BLK assessed as remaining enzyme activity at 0.1 uM
[10] = biological target: NT-3 growth factor receptor (Homo sapiens) (UniProt Q16288); test: Inhibition of human TRKC assessed as remaining enzyme activity at 0.1 uM
[11] = biological target: Tyrosine-protein kinase FRK (Homo sapiens) (UniProt P42685); test: Inhibition of human PTK5 assessed as remaining enzyme activity at 0.1 uM
[12] = biological target: Ephrin type-A receptor 2 (Homo sapiens) (UniProt P29317); test: Inhibition of human EphA2 assessed as remaining enzyme activity at 0.1 uM
[13] = biological target: Macrophage colony-stimulating factor 1 receptor (Homo sapiens) (UniProt P07333); test: Inhibition of human FMS assessed as remaining enzyme activity at 0.1 uM
Chain of Macrophage colony-stimulating factor 1 receptor (Homo sapiens) (P07333 whole entry): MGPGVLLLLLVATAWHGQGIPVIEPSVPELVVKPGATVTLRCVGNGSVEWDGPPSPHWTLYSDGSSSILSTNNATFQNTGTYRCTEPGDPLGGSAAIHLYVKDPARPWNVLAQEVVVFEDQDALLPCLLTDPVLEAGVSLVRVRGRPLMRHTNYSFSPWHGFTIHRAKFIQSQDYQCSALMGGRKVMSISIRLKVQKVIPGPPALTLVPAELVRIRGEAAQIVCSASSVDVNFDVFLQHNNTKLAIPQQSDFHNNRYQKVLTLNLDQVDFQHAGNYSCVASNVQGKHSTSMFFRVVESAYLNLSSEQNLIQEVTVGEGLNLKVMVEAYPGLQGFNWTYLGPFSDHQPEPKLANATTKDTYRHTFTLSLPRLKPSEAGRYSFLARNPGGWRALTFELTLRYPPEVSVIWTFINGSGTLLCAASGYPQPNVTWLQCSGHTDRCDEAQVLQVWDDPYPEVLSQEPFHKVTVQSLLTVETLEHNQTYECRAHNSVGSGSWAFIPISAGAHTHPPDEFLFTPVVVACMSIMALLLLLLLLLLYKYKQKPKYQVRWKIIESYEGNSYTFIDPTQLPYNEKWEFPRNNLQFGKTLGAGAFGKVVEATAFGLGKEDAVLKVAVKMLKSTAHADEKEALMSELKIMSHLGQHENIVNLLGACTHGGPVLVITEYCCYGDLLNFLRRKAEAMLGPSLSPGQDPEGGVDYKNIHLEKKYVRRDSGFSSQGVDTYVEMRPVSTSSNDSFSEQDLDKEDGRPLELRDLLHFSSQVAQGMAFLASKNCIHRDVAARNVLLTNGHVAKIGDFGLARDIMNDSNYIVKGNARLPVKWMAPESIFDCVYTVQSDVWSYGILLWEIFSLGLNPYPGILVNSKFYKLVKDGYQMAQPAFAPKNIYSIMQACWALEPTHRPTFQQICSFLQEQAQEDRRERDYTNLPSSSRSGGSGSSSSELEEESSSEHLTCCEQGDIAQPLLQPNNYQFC

[14] = biological target: Homeodomain-interacting protein kinase 3 (Homo sapiens) (UniProt Q9H422); test: Inhibition of human HIPK3 assessed as remaining enzyme activity at 0.1 uM
[15] = biological target: T1, Muscle, skeletal receptor tyrosine-protein kinase (Homo sapiens) (UniProt O15146); test: Inhibition of human MuSK assessed as remaining enzyme activity at 0.1 uM
T1 sequence (whole entry): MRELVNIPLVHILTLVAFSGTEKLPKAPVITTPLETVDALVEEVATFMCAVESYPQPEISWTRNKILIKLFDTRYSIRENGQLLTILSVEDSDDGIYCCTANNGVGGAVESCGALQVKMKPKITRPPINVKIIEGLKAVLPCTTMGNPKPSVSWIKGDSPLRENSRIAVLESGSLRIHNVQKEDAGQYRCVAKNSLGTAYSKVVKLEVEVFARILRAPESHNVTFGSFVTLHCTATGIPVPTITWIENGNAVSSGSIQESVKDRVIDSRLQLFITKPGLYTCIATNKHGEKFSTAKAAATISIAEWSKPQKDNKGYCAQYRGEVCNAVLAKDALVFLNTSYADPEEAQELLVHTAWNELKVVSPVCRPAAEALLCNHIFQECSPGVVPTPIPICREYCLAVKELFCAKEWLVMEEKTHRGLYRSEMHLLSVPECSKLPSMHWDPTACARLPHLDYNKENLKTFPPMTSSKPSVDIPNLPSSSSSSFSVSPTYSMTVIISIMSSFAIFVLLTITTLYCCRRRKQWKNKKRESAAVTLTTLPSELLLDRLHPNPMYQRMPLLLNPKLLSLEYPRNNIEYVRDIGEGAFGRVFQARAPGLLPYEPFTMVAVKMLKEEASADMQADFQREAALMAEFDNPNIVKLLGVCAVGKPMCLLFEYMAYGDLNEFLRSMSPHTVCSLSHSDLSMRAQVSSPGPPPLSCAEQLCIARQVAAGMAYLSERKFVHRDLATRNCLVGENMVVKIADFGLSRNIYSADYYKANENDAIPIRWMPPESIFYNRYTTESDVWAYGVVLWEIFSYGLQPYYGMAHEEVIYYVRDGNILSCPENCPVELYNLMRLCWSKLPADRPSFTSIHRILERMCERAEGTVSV

[16] = biological target: Vascular endothelial growth factor receptor 3 (Homo sapiens) (UniProt P35916); test: Inhibition of human VEGFR3 assessed as remaining enzyme activity at 0.01 uM
[17] = biological target: Vascular endothelial growth factor receptor 1 (Homo sapiens) (UniProt P17948); test: Inhibition of human VEGFR1 assessed as remaining enzyme activity at 0.01 uM
[18] = biological target: RAF proto-oncogene serine/threonine-protein kinase (Homo sapiens) (UniProt P04049); test: Inhibition of human RAF1 assessed as remaining enzyme activity at 0.01 uM
Chain of RAF proto-oncogene serine/threonine-protein kinase (Homo sapiens) (P04049 whole entry): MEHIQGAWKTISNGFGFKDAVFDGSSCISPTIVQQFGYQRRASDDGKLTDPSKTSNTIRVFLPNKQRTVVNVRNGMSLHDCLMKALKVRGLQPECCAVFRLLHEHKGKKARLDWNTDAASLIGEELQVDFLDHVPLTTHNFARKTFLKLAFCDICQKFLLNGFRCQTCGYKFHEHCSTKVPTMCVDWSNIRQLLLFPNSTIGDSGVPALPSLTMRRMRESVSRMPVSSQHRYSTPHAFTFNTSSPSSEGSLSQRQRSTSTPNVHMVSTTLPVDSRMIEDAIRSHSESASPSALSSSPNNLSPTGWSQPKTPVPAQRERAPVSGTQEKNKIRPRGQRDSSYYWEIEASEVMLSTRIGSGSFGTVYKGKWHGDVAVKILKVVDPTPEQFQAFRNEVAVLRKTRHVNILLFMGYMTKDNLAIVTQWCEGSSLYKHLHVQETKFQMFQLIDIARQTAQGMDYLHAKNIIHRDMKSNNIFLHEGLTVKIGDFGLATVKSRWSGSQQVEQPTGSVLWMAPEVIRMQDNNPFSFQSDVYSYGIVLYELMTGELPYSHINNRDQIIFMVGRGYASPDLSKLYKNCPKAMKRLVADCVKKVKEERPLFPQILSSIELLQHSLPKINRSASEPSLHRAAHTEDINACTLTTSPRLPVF

[19] = biological target: Mitogen-activated protein kinase 14 (Homo sapiens) (UniProt Q16539); test: Inhibition of human p38alpha assessed as remaining enzyme activity at 0.01 uM
[20] = biological target: Mitogen-activated protein kinase kinase kinase 20 (Homo sapiens) (UniProt Q9NYL2); test: Inhibition of human ZAK assessed as remaining enzyme activity at 0.01 uM
[21] = biological target: NT-3 growth factor receptor (Homo sapiens) (UniProt Q16288); test: Inhibition of human TRKC assessed as remaining enzyme activity at 0.01 uM
[22] = biological target: Tyrosine-protein kinase Lyn (Homo sapiens) (UniProt P07948); test: Inhibition of human LYN assessed as remaining enzyme activity at 0.01 uM
[23] = biological target: RAF proto-oncogene serine/threonine-protein kinase (Homo sapiens) (UniProt P04049); test: Inhibition of human C-Raf assessed as remaining enzyme activity at 0.01 uM
[24] = biological target: Tyrosine-protein kinase ABL2 (Mus musculus) (UniProt Q4JIM5); test: Inhibition of mouse ARG assessed as remaining enzyme activity at 0.01 uM
[25] = biological target: Macrophage colony-stimulating factor 1 receptor (Homo sapiens) (UniProt P07333); test: Inhibition of human FMS assessed as remaining enzyme activity at 0.01 uM
[26] = biological target: Homeodomain-interacting protein kinase 3 (Homo sapiens) (UniProt Q9H422); test: Inhibition of human HIPK3 assessed as remaining enzyme activity at 0.01 uM
[27] = biological target: Homeodomain-interacting protein kinase 2 (Homo sapiens) (UniProt Q9H2X6); test: Inhibition of human HIPK2 assessed as remaining enzyme activity at 0.01 uM
[28] = biological target: T1, Muscle, skeletal receptor tyrosine-protein kinase (Homo sapiens); test: Inhibition of human MuSK assessed as remaining enzyme activity at 0.01 uM

Chain of Vascular endothelial growth factor receptor 2 (Homo sapiens) (P35968 whole entry): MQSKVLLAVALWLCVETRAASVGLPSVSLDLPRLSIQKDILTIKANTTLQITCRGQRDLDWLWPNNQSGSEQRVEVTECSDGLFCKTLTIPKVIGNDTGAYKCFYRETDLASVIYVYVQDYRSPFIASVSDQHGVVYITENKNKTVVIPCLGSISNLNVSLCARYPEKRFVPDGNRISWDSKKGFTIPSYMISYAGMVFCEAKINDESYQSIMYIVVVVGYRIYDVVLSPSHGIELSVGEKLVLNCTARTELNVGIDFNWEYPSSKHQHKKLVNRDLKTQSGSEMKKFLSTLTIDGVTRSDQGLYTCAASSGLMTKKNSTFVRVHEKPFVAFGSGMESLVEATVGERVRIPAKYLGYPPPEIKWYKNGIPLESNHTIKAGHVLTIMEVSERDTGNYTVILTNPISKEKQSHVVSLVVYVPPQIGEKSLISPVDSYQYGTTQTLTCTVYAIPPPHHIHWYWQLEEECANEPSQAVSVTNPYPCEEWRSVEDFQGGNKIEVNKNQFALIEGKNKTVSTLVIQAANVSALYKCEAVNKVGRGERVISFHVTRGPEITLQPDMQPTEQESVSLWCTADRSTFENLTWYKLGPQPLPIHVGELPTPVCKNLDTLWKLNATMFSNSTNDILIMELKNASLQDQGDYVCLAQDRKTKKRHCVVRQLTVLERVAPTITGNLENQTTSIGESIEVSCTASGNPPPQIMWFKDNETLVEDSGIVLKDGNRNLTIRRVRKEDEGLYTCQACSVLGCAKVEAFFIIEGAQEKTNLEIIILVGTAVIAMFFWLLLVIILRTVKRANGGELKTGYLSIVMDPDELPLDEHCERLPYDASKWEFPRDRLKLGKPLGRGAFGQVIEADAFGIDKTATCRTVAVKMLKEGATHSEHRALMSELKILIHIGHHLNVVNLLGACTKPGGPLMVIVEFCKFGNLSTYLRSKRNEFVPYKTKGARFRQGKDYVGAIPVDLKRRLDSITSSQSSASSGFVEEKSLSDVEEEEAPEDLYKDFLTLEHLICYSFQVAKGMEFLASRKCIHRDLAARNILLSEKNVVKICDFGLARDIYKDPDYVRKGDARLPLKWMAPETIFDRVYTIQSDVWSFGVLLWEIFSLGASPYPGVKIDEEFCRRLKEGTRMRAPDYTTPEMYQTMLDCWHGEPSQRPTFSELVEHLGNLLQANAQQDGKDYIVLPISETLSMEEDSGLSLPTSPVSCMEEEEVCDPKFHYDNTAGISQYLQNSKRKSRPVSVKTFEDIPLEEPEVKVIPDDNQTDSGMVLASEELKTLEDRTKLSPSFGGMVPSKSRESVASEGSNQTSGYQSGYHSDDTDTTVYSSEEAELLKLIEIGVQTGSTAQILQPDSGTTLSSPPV

`CNC(=O)c1cc(Oc2ccc(NC(=O)Nc3ccc(Cl)c(C(F)(F)F)c3)c(F)c2)ccn1` showed an Activity [1] of 17%, an Activity [2] of 55% and an Activity [3] of -1%. For the same molecule, the Activity [4] was 1%, the Activity [5] was 11% and the Activity [6] was 47%. The Activity [7] was 3%, the Activity [8] was 19% and the Activity [9] was 45%. For the same molecule, the Activity [10] was 17%, the Activity [11] was 18% and the Activity [12] was 58%. It also gave an Activity [13] of 36%, an Activity [14] of 68% and an Activity [15] of 92%. It also gave an Activity [16] of 38%, an Activity [17] of 43% and an Activity [18] of 93%. The Activity [19] was 100%, the Activity [20] was 27% and the Activity [21] was 54%. It also gave an Activity [22] of 32%, an Activity [23] of 93% and an Activity [24] of 97%. It also gave an Activity [25] of 73%, an Activity [26] of 103% and an Activity [27] of 96%. The Activity [28] was 89%.
